Reference: US9474759B2 (priority 2011, dated 2016)
Like-named read-outs stand apart in the source and are kept apart here.

How the values were obtained:
[1] = tested on: EV71; assay: Cell-based screening, EV71 in Vero cells (Example 2); set-up: species or system enterovirus 71; settings: Enterovirus A, EV71, Vero, read-out: Inhibition [ED50 (μM)] against various viruses: Picornavirus, EV71
Experimental: (§1) 3. Cell-based screening of inhibitor. The effects of each inhibitor on the viral replication were examined. The list of viruses and corresponding cell lines are listed above in Table 2. Briefly, confluent cells were inoculated with virus at a MOI of 5 or 0.05 for 1 hr, and medium was replaced with medium containing mock-medium or each compound (up to 100 μM). The virus infected cells were further incubated for up to 96 hrs, and the replication of virus was measured by TCID50 assay with the 10-fold dilution of each sample used for virus titration (Reed and Muench, 1938). In some viruses, the virus protein and genome expression levels were detected by Western blot analysis and real-time qRT-PCR, respectively, as described below. The IC50s of the compounds were calculated.

[2] = molecular target: SARS-CoV 3CLpro (codon-optimized, N-terminal 6 His, recombinant) (Severe acute respiratory syndrome coronavirus, UniProt P0C6X7); assay: biochemical
[3] = tested on: FCV; assay: Cell culture system, FCV replication in CRFK cells (Example 3); assay type: cell-based, feline calicivirus; settings: CRFK cells
[4] = molecular target: HAV 3Cpro (Human hepatitis A virus genotype IB, UniProt P08617); assay: Optimized FRET protease assay, HAV 3Cpro (Example 3); assay type: biochemical
Sequence of HAV 3Cpro (P08617 1520-1738): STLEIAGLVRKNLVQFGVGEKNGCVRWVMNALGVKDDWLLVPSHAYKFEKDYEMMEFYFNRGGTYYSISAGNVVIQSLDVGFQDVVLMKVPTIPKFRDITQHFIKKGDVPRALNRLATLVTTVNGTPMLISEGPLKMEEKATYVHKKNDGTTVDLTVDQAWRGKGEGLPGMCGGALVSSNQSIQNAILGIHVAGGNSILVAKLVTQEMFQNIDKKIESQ
Experimental: Fluorogenic substrates with Edans and Dabcyl as a donor and quencher pair were purchased from Bachem (coronavirus substrate) or synthesized by GenScript. The viral proteases and the corresponding fluorogenic substrates are listed in Table 5, along with their sources.
Stock solutions (10 mM) of the substrates and the compounds were prepared in dimethyl sulfoxide (DMSO) and diluted in assay buffer. The assay buffer comprised 20 mM HEPES buffer containing NaCl (0 mM for HAV 3Cpro and 200 mM for all other proteases), 0.4 mM EDTA, Glycerol (60% for NV and MD145 3CLpro and 30% for TGEV and 229E 3CLpro), and 6 mM (NV and MD145 3CLpro and HAV 3Cpro)_or 4 mM (all other proteases) dithiothreitol (DTT) at pH 6 (coronavirus 3CLpro) or 8 (all other proteases). Each protease was mixed with serial dilutions of each compound or with DMSO in 25 μl of assay buffer and incubated at 37° C. for 30 min, followed by the addition of 25 μl of assay buffer containing substrate. Fluorescence readings were obtained using an excitation wavelength of 360 nm and an emission wavelength of 460 nm on a fluorescence microplate reader (FLx800; Biotek, Winooski, Vt.) at 1 h following the addition of substrate. The relative fluorescence units (RFU) were determined by subtracting background values (substrate-containing well without protease) from the raw fluorescence values. […]

[5] = tested on: FCV; assay: Cell-based screening, FCV in CRFK cells (Example 2); settings: Feline calicivirus, CRFK, read-out: Inhibition [ED50 (μM)] against various viruses: Calicivirus, FCV
Experimental: as §1

[6] = tested on: MNV-1; assay: Cell culture system, MNV-1 replication in RAW267.4 cells (Example 3); assay type: cell-based, murine norovirus; settings: RAW267.4 cells
[7] = molecular target: Norwalk virus 3CL protease (Norovirus, UniProt Q83883); assay: Recombinant NV protease fluorogenic substrate inhibition assay (Example 1); assay type: biochemical; settings: 30 min pre-incubation, 30° C., pH 8.0
Sequence of Norwalk virus 3CL protease (Q83883 1101-1281): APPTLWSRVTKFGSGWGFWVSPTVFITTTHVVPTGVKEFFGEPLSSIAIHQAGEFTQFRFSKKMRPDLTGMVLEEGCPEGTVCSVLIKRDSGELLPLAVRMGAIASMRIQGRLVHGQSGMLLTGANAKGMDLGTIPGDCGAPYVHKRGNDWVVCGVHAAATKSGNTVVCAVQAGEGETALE
Experimental: After a 30 minute incubation period, 5 μL of 12 μM Edans-[…]-Dabcyl (SEQ ID NO:1) substrate in DMSO was then added and the increase in fluorescence was monitored for 30 minutes at an excitation and emission wavelength of 360 and 460 nm, respectively. Using a HORIBA FluoroMax 4 spectrofluorometer. Hydrolysis curves were linear. The final enzyme and substrate concentrations were 2.5 μM and 300 nM, respectively. […] Furthermore, the nature of the cap was also important (compare, for example, inhibitors A and D).

[8] = PK and oral bioavailability studies in rats; settings: 20 mg/Kg (body weight), IV or PO
[9] = tested on: 3CLpro of NV, MD145, MNV-1; assay type: biochemical, norovirus; settings: optimized FRET-based protease assay
[10] = tested on: MHV; assay: Cell-based screening, MHV in CCL-9.1 cells (Example 2); set-up: species or system mouse hepatitis virus; settings: Murine coronavirus, read-out: Inhibition [ED50 (μM)] against various viruses: Coronavirus, MHV
[11] = molecular target: recombinant 3C or 3CL of MD145 (Norovirus Hu/GII.4/MD145-12/1987/US (Maryland virus), UniProt Q8V0P3); assay: FRET protease assay, MD145 3CL (Example 2); assay type: biochemical, norovirus strain MD145
Sequence of recombinant 3C or 3CL of MD145 (Q8V0P3 entry or part of it): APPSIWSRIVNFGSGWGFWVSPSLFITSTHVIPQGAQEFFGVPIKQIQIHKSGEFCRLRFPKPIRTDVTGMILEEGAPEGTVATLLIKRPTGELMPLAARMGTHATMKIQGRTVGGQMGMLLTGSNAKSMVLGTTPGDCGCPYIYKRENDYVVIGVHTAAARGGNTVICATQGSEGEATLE

[12] = tested on: Teschovirus; assay: organism not typed; assay type: cell-based, porcine teschovirus; settings: read-out: Inhibition [ED50 (μM)] against various viruses: Picornavirus, Teschovirus
[13] = tested on: FIPV; assay: Cell-based screening, FIPV in CRFK cells (Example 2); set-up: species or system feline infectious peritonitis virus; settings: Alphacoronavirus 1, CRFK, read-out: Inhibition [ED50 (μM)] against various viruses: Coronavirus, FIPV
Experimental: as §1

[14] = tested on: MNV-1; assay: Cell-based screening, MNV-1 in RAW267.4 cells (Example 2); set-up: species or system murine norovirus; settings: Norwalk virus, RAW267.4, read-out: Inhibition [ED50 (μM)] against various viruses: Calicivirus, MNV-1
Experimental: as §1

[15] = molecular target: T1, MD145 3CLpro (codon-optimized, full-length, N-terminal 6 His, recombinant) (Lordsdale virus, UniProt P54634); assay: biochemical; set-up: species or system norovirus strain MD145 (human norovirus GII)
T1 sequence (P54634 1009-1189): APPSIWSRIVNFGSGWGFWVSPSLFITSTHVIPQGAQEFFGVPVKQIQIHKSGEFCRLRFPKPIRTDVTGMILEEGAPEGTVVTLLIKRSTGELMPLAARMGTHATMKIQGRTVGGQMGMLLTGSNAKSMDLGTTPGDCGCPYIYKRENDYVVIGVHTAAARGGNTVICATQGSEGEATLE

[16] = tested on: TGEV; assay: Cell-based screening, TGEV in ST cells (Example 2); set-up: species or system transmissible gastroenteritis virus; settings: Alphacoronavirus 1, read-out: Inhibition [ED50 (μM)] against various viruses: Coronavirus, TGEV
Experimental: as §1

[17] = tested on: Norwalk virus (HG23 cells); assay: microbe, parasite or virus in culture; assay type: cell-based; settings: HG23, read-out: Inhibition [ED50 (μM)] against various viruses: Calicivirus, HG23 cells
[18] = tested on: HAV; assay: Cell-based screening, HAV (Example 2); set-up: species or system hepatitis A virus; settings: Picornaviridae, read-out: Inhibition [ED50 (μM)] against various viruses: Picornavirus, HAV
Experimental: as §1

[19] = tested on: 229E; assay: Cell-based screening, 229E in MRC-5 cells (Example 2); settings: Human coronavirus 229E, MRC5, read-out: Inhibition [ED50 (μM)] against various viruses: Coronavirus, 229E
Experimental: as §1

[20] = molecular target: HAV 3Cpro (full-length, 6 His, recombinant) (Human hepatitis A virus genotype IB, UniProt P08617); assay: biochemical; set-up: species or system human hepatitis A virus (strain HM175)
Sequence of HAV 3Cpro (full-length, 6 His, recombinant) (P08617 1520-1738): as the sequence (P08617 1520-1738) above

[21] = tested on: HAV; assay: Cell culture system, HAV replication in FRhK-4 cells (Example 3); assay type: cell-based, hepatitis A virus
[22] = tested on: MNV-1; settings: MNV-1 passaged in the presence of the drug
[23] = tested on: human norovirus (HuNoV); assay: Gnotobiotic pig model of human norovirus infection, first trial; assay type: in vivo, gnotobiotic (Gn) pigs
Excerpt: We investigated if fecal norovirus shedding in human norovirus-inoculated gnotobiotic (Gn) pigs is altered the by treatment with GC376. […] On day 2 after antiviral treatment, they were inoculated orally with 1.0×10^10 genome equivalent (GE) of Human norovirus (GII.12 HS206). Rectal swabs were collected daily from each animal throughout the experiment, and fecal virus shedding and clinical signs were monitored daily until virus was not detectable by real-time qRT-PCR. The Table below summarizes the results.

[24] = molecular target: TGEV 3CL protease (Porcine transmissible gastroenteritis coronavirus, UniProt P0C6Y5); assay: FRET-based protease assay, TGEV 3CL protease (Example 5); assay type: biochemical, TGEV Miller strain; settings: compound at 50 μM final concentration
Sequence of TGEV 3CL protease (P0C6Y5 2879-3180): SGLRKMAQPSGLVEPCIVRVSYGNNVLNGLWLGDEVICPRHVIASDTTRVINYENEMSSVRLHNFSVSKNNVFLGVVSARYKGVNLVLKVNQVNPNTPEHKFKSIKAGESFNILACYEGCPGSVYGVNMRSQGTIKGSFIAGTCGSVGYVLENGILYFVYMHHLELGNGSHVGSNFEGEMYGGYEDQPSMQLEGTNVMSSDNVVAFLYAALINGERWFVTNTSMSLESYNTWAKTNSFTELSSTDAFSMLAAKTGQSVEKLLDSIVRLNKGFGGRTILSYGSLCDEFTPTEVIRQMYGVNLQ
Excerpt: The 3CL proteases are highly conserved among all coronaviruses, and feline coronavirus 3CL protease is closely related TGEV 3CL protease. Therefore we cloned and expressed the TGEV 3CL protease for the FRET assay. The cDNA encoding the full length of 3CL protease of TGEV Miller strain was amplified with RT-PCR as previously described. The primers contained the nucleotide sequence of the 3CL protease for cloning as well as the nucleotides for 6 Histidine in the forward primer. The amplified product was subcloned to pET-28a(+) vector (GenScript, Piscataway, N.J.). The expression and purification of the 3CL protease was performed with a standard method described previously by our lab (Chang et al., 2012b; Takahashi et al., 2012; Tiew et al., 2011).
Our protease inhibitor compounds and commercial cathepsin inhibitors CA074-Me and E64d were prepared in DMSO as stock solutions (10 mM), and further diluted in assay buffer consisting of 20 mM HEPES, 0.4 mM EDTA, 30% glycerol, 120 mM NaCl, and 4 mM DTT at pH 6. […] TGEV 3CL protease at a final concentration of 0.1˜0.2 μM and the substrate (Dabcyl-[…]-Edans; SEQ ID NO:2) at 10 μM were used for the studies. The substrate was purchased from Bachem Americas, Inc (Torrance, Calif.). Compounds at various concentrations (0˜50 μM) were pre-incubated with TGEV 3CL protease in 25 μl for 30 min at 37° C., and the same volume of substrate was added to a 96-well black plate. The mixtures were then incubated at 37° C. for 60 min, and fluorescence readings were obtained on a microplate reader at 360 nm excitation and 480 nm emission wavelengths. The relative fluorescence units (RFU) were calculated by subtracting background (substrate control well without protease) from the fluorescence readings. The dose-dependent FRET inhibition curves were fitted with variable slope (four parameters) using GraphPad Prism software (La Jolla, Calif.) in order to determine the compound concentration that gives a half-maximum response (IC50).

[25] = tested on: human norovirus (GII.12 HS206); assay: Gnotobiotic pig model of human norovirus infection, repeat at 100 mg/kg/day; assay type: in vivo; settings: Gn pigs
Excerpt: After antiviral treatment or HuNoV inoculation, clinical signs and fecal virus shedding were monitored daily through day 14.

[26] = molecular target: PV 3Cpro (codon-optimized, N-terminal 6 His, recombinant) (Poliovirus type 1, UniProt P03300); assay: biochemical; set-up: species or system poliovirus (poliomyelitis virus)
Sequence of PV 3Cpro (codon-optimized, N-terminal 6 His, recombinant) (P03300 1566-1748 limits assumed): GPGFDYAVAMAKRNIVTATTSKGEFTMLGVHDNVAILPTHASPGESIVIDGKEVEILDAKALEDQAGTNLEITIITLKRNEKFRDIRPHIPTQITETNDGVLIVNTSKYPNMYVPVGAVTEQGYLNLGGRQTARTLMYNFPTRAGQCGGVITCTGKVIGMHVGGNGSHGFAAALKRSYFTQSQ

[27] = molecular target: T1, MD145 3CLpro (codon-optimized, full-length, N-terminal 6 His, recombinant); assay: biochemical; set-up: species or system norovirus strain MD145
[28] = molecular target: HRV 3Cpro (recombinant, purchased from EMD chemicals) (Human rhinovirus 14, UniProt P03303); assay: biochemical
Sequence of HRV 3Cpro (recombinant, purchased from EMD chemicals) (P03303 1538-1719): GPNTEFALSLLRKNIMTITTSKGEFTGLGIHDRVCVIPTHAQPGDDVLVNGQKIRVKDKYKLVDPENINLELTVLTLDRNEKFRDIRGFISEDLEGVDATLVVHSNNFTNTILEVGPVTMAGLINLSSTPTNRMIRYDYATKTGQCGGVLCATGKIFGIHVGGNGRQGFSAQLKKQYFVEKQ

[29] = molecular target: NV 3CLpro (codon-optimized, full-length, N-terminal 6 His, recombinant) (Norovirus, UniProt Q83883); assay: biochemical; set-up: species or system norovirus strain Norwalk
Sequence of NV 3CLpro (codon-optimized, full-length, N-terminal 6 His, recombinant) (Q83883 1101-1281): as the sequence (Q83883 1101-1281) above

[30] = Gn pigs, oral 25 mg/kg twice a day 10 days then approx. 12.5 mg/kg twice a day 5 days
[31] = same regimen, detection limit 4.7 log10 GE/ml
[32] = oral 100 mg/kg once a day for 5 days

CC(C)C[C@H](NC(=O)OCc1ccccc1)C(=O)N[C@@H](CC1CCNC1=O)C(=O)C(=O)NC(C)C (some centres unmarked) [GC375]
EC50 [1]: 15 µM | IC50 [2]: 4.66 ± 0.19 µM | antiviral effects against FCV: no effects at concentrations up to [3]: > 50 µM | inhibitory effect on HAV 3Cpro (in words) [4]: weak but appreciable inhibitory effects | EC50 [5]: 4.5 µM | antiviral effects against MNV-1: no effects at concentrations up to [6]: > 50 µM | inhibitory activity against Norwalk virus 3CL protease (in words) [7]: devoid of inhibitory activity | oral bioavailability, % F [8]: 16 % F | effect on the activity of 3CLpro of NV, MD145, MNV-1 (in words) [9]: lower than those of GC373 and GC376 | EC50 [10]: 4.5 µM | IC50 [11]: 6.4 µM | EC50 [12]: 0.2 µM | EC50 [13]: 1.5 µM | EC50 [14]: 85 µM | IC50 [15]: 4.03 µM | EC50 [16]: 0.2 µM | EC50 [17]: 3.2 µM | EC50 [18]: 20 µM | EC50 [19]: 0.15 µM | IC50 [20]: 42.6 ± 2.61 µM

CC(C)C[C@H](NC(=O)OCc1ccccc1)C(=O)N[C@@H](C[C@@H]1CCNC1=O)C(O)S(=O)(=O)[O-].[Na+] (some centres unmarked) [GC376]
effectiveness against the replication of HAV in cells (in words) [21]: no or weak effectiveness | oral bioavailability, % F [8]: 4 % F | effect on the activity of 3CLpro of NV, MD145, MNV-1 (in words) [9]: highly effective | increase of IC50 at passage number 15 [22]: up to 10 fold | Mean duration of virus shedding, Tx (+) at PIDs 1-13 [23, 30]: 7.5 | Mean onset of virus shedding (PID) [23, 30]: 2.3 PID | effect of oral treatment on virus shedding compared to untreated animals (in words) ([23]; HuNoV-inoculated Gn pigs): significantly reduced the duration of virus shedding | Overall duration of virus shedding at PID1-27 ([23]; same regimen): 7.5 | Mean duration of virus shedding, Tx (−) at PIDs 14-27 ([23]; same regimen, after treatment discontinued): 0 | Mean log10 viral titer/rectal swab (GE/ml), Overall viral titer shed at PIDs 1-27 [23, 31]: 4.86 log10 GE/ml | Mean log10 viral titer/rectal swab (GE/ml), Tx (+) at PIDs 1-13 [23, 31]: 4.98 log10 GE/ml | Mean log10 viral titer/rectal swab (GE/ml), Tx (−) at PIDs 14-27 [23, 31]: <4.70 log10 GE/ml | inhibition of the activity of TGEV 3CL protease (in words) [24]: remarkably inhibited | Mean duration of virus shedding (SEM), Tx (+) at PIDs 1-5 [25, 32]: 3.3 (0.3) | Mean duration of virus shedding (SEM), Tx (−) at PIDs 6-14 [25, 32]: 4.0 (2.0) | Mean log10 viral titer/rectal swab (GE/ml) (SEM), Overall viral titer shed at PIDs 1-14 [25, 32]: 5.17 (0.08)^B log10 GE/ml | Mean log10 viral titer/rectal swab (GE/ml) (SEM), Tx (+) at PIDs 1-5 [25, 32]: 5.28 (0.13)^b,A log10 GE/ml | Mean log10 viral titer/rectal swab (GE/ml) (SEM), Tx (−) at PIDs 6-14 [25, 32]: 5.11 (0.10)^B log10 GE/ml | fecal viral RNA titers after treatment was discontinued vs 30% DMSO vehicle pigs (in words) [25, 32]: significantly lower fecal viral RNA titers | Mean onset of virus shedding (PID) (SEM) ([25]; oral 100 mg/kg once a day for 5 days from day 1 after inoculation): 2.7 (0.3) PID

CCOC(=O)/C=C/[C@H](C[C@@H]1CCNC1=O)NC(=O)[C@@H](CC(=O)[C@@H](NC(=O)c1cc(C)on1)C(C)C)Cc1ccc(F)cc1 [Rupintrivir, reference compound]
IC50 [26]: 1.83 ± 0.38 µM | IC50 [27]: 0.7 ± 0.19 µM | IC50 [28]: 0.34 ± 0.05 µM | IC50 [29]: 0.83 ± 0.19 µM
